The text below walks through data of patent US7973051B2 (Hoffman-La Roche Inc., priority 2007, dated 2011).

Molecules are shown by their SMILES.

For this assay, the target named is T1, human liver FBPase (Homo sapiens, UniProt P09467).
T1 construct: made in house; host or cells: E. coli
T1 sequence (P09467 2-338 limits assumed): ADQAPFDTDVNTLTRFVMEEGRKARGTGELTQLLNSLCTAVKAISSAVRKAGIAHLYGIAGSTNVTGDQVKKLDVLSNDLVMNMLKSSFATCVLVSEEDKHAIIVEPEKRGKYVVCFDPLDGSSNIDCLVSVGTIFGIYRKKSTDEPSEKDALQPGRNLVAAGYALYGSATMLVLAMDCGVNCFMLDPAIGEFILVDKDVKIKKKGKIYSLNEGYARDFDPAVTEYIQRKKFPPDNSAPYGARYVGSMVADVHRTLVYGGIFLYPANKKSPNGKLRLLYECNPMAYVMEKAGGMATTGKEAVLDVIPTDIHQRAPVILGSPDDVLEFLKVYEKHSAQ
Put plainly: FBPase assay: inorganic phosphate release (malachite green). Type of assay: biochemical. Particulars: recombinant human liver FBPase, 50 μM fructose-1,6-bisphosphate, read-out at 620 nm. On the procedure:
The following tests were carried out for evaluating the inhibitory activity of the compounds of the present invention against human liver FBPase (Swissprot Data base reference P09467, entry F16P_HUMAN).
Human liver FBPase cDNA (NM_000507) was purchased from Origene Technologies, Inc, subcloned in a vector for expression in E. Coli., and sequenced. Recombinant human liver FBPase (hlFBPase) was purified according to the following protocol that uses heat denaturation similarly to that described by El-Maghrabi et. al. [El-Maghrabi, M. R. et al. “Isolation of a human liver fructose-1,6-bisphosphatase cDNA and expression of the protein in Escherichia coli.” J Biol Chem 268:9466-9472, 1993.]. Briefly, E. coli cells, transiently expressing very high levels of soluble and active human liver FBPase, were suspended in 20 mM Tris-HCl pH 7.5, 1 mM EDTA, 1 mM DTT and were lysed by French press. The soluble extract was heat denatured at 65° C. for 5 min, and insoluble, denatured proteins were removed by centrifugation. The extract was then applied to a BioRad Macro-Prep High Q column equilibrated with 20 mM Tris-HCl pH 7.5, 1 mM EDTA, 1 mM DTT and the flow-through (containing FBPase activity) was collected and applied to a BioRad Macro-Prep HS column equilibrated with 20 mM HEPES pH 7.2, 1 mM DTT. A gradient of increasing NaCl concentration was then applied to the HS column and fractions were collected. Fractions containing active FBPase were pooled and further purified by size exclusion chromatography on a Sephacryl S200 column equilibrated in 20 mM Tris-HCl pH 7.5, 150 mM NaCl, 1 mM EDTA, 1 mM DTT. Purity of the enzyme preparation was >90% as assessed by Mass spectrometry.
Recombinant human liver FBPase (hlFBPase) activity was assayed through measuring the inorganic phosphate release that results from the hydrolysis of Fructose-1,6-bisphosphate by the enzyme. As described by Baykov A. A. et al. in [Baykov A. A et al., “Malachite Green procedure for orthophosphate determination and its use in alkaline phosphatase-based enzyme immunoassays”. Anal. Biochem., 171:266-270, 1988], inorganic phosphate can be readily quantified by spectrophotometry at 620 nm after complexation with ammonium molybdate/malachite green reagent. Enzymatic reaction was carried out with modifications of the procedure described by Wright S. W. et al. [Wright S. W. et al., “Anilinoquinazoline inhibitors of Fructose-1,6-bisphosphatase bind to a novel allosteric site: synthesis, in vitro characterization, and X-ray crystallography”. J. Med. Chem. 45:3865-3877, 2002]. Specifically, the reaction was carried out in 96 well plates in a final volume of 100 μl in the presence or in the absence of allosteric inhibitors. Reaction was started adding 25 ng of hlFBPase to the reaction mixture containing 50 mM HEPES-KOH buffer pH 7.2, 2 mM MgCl2, 2 mM EDTA, 1 mM DTT, 50 μM fructose-1,6-bisphosphate and 1% DMSO. After 50 minutes incubation at room temperature, the phosphate released was allowed to form a colored complex for 10 min by adding 150 μl of ammonium molybdate/malachite green reagent containing 0.03% malachite green, 0.2% ammonium molybdate, 0.05% Triton X-100 and 0.7 M H2SO4 in water that was stirred for 30 min at room temperature and filtered through 0.2 μm filter. Under these conditions, the assay was linear with time and able to detect FBPase inhibition after spectrophotometric read-out at 620 nm.
With `Cc1ccc2sc(S(=O)(=O)NC(=O)Nc3ncc(Br)s3)cc2c1` [Example 1, N-[(5-Bromo-1,3-thiazol-2-yl)carbamoyl]-5-methyl-1-benzothiophene-2-sulfonamide], the half-inhibitory concentration (IC50) (usually the point on the concentration scale where inhibition reaches its midpoint) was 0.089 µM. Then `O=C(Nc1ncc(Br)s1)NS(=O)(=O)c1cc2ccccc2s1` [Example 2, N-[(5-Bromo-1,3-thiazol-2-yl)carbamoyl]-1-benzothiophene-2-sulfonamide], with 0.434 µM; and `Cc1c(S(=O)(=O)NC(=O)Nc2ncc(Br)s2)sc2ccc(F)cc12` [Example 3, N-[(5-Bromo-1,3-thiazol-2-yl)carbamoyl]-5-fluoro-3-methyl-1-benzothiophene-2-sulfonamide], with 2.73 µM; and `O=C(Nc1ncc(Br)s1)NS(=O)(=O)c1csc2ccccc12` [Example 4, N-[(5-Bromo-1,3-thiazol-2-yl)carbamoyl]-1-benzothiophene-3-sulfonamide], with 0.212 µM. With `Cc1c(S(=O)(=O)NC(=O)Nc2ncc(Br)s2)sc2ccc(Br)cc12` [Example 5, 5-Bromo-N-[(5-bromo-1,3-thiazol-2-yl)carbamoyl]-3-methyl-1-benzothiophene-2-sulfonamide], the concentration for half-maximal inhibition (IC50) amounted to 1.47 µM. With `O=C(Nc1ncc(Br)s1)NS(=O)(=O)c1cc2c(s1)CCOC2` [Example 6, N-[(5-Bromo-1,3-thiazol-2-yl)carbamoyl]-6,7-dihydro-4H-thieno[3,2-c]pyran-2-sulfonamide], the IC50 came out at 0.528 µM. Regarding `COc1ccc2scc(S(=O)(=O)NC(=O)Nc3ncc(Br)s3)c2c1` [Example 7, N-[(5-Bromo-1,3-thiazol-2-yl)carbamoyl]-5-methoxy-1-benzothiophene-3-sulfonamide], the half-maximal inhibitory concentration (IC50) was found to be 0.122 µM. Under `Cn1c(S(=O)(=O)NC(=O)Nc2ncc(Br)s2)cc2ccccc21` [Example 8, N-[(5-Bromo-1,3-thiazol-2-yl)carbamoyl]-1-methyl-1H-indole-2-sulfonamide] stands 1.1 µM; under `COc1ccc2cc(S(=O)(=O)NC(=O)Nc3ncc(Br)s3)sc2c1` [Example 9, N-[(5-Bromo-1,3-thiazol-2-yl)carbamoyl]-6-methoxy-1-benzothiophene-2-sulfonamide], 0.088 µM; under `COC(=O)c1ccc2scc(S(=O)(=O)NC(=O)Nc3ncc(Br)s3)c2c1` [Example 10, Methyl-3-({[(5-bromo-1,3-thiazol-2-yl)carbamoyl]amino}sulfonyl)-1-benzothiophene-5-carboxylate], 0.446 µM. Then `Cc1ccc2scc(S(=O)(=O)NC(=O)Nc3ncc(Br)s3)c2c1` [Example 11, N-[(5-Bromo-1,3-thiazol-2-yl)carbamoyl]-5-methyl-1-benzothiophene-3-sulfonamide], with 0.624 µM; and `O=C(Nc1ncc(Br)s1)NS(=O)(=O)c1csc2ccc(Cl)cc12` [Example 12, N-[(5-Bromo-1,3-thiazol-2-yl)carbamoyl]-5-chloro-1-benzothiophene-3-sulfonamide], with 0.37 µM; and `O=C(Nc1ncc(Br)s1)NS(=O)(=O)c1cc2cc(Cl)ccc2s1` [Example 13, N-[(5-Bromo-1,3-thiazol-2-yl)carbamoyl]-5-chloro-1-benzothiophene-2-sulfonamide], with 0.111 µM.

Regarding `Cc1cccc2cc(S(=O)(=O)NC(=O)Nc3ncc(Br)s3)sc12` [Example 14, N-[(5-Bromo-1,3-thiazol-2-yl)carbamoyl]-7-methyl-1-benzothiophene-2-sulfonamide], the half-inhibitory concentration (IC50) was found to be 0.161 µM. Under `COc1ccc2cc(S(=O)(=O)NC(=O)Nc3ncc(Br)s3)sc2c1Br` [Example 15, 7-Bromo-N-[(5-bromo-1,3-thiazol-2-yl)carbamoyl]-6-methoxy-1-benzothiophene-2-sulfonamide] stands 0.141 µM. Regarding `Cc1noc(C)c1-c1ccc2sc(S(=O)(=O)NC(=O)Nc3ncc(Br)s3)cc2c1` [Example 16, N-[(5-bromo-1,3-thiazol-2-yl)carbamoyl]-5-(3,5-dimethylisoxazol-4-yl)-1-benzothiophene-2-sulfonamide], the half-maximal inhibitory concentration (IC50) was 0.83 µM. Under `COc1ccc2sc(S(=O)(=O)NC(=O)Nc3ncc(Br)s3)cc2c1` [Example 17, N-[(5-Bromo-1,3-thiazol-2-yl)carbamoyl]-5-methoxy-1-benzothiophene-2-sulfonamide] stands 0.167 µM; under `O=C(Nc1ncc(Br)s1)NS(=O)(=O)c1csc2c(Cl)cccc12` [Example 18, N-[(5-Bromo-1,3-thiazol-2-yl)carbamoyl]-7-chloro-1-benzothiophene-3-sulfonamide], 0.208 µM.

Take `O=C(Nc1ncc(Br)s1)NS(=O)(=O)c1cc2cccc(Cl)c2s1` [Example 19, N-[(5-Bromo-1,3-thiazol-2-yl)carbamoyl]-7-chloro-1-benzothiophene-2-sulfonamide]: the IC50 came to 0.268 µM. Then `O=C(Nc1ncc(Br)s1)NS(=O)(=O)c1cc2ccccc2[nH]1` [Example 20, N-[(5-Bromo-1,3-thiazol-2-yl)carbamoyl]-1H-indole-2-sulfonamide], with 0.134 µM. Under `Cc1noc(C)c1-c1cccc2cc(S(=O)(=O)NC(=O)Nc3ncc(Br)s3)sc12` [Example 21, N-[(5-Bromo-1,3-thiazol-2-yl)carbamoyl]-7-(3,5-dimethylisoxazol-4-yl)-1-benzothiophene-2-sulfonamide] stands 0.447 µM; under `O=C(Nc1ncc(Br)s1)NS(=O)(=O)c1cc2cccc(-c3ccncc3)c2s1` [Example 22, N-[(5-Bromo-1,3-thiazol-2-yl)carbamoyl]-7-pyridin-4-yl-1-benzothiophene-2-sulfonamide], 0.44 µM.

On to `Cn1cc(S(=O)(=O)NC(=O)Nc2ncc(Br)s2)c2ccccc21` [Example 23, N-[(5-Bromo-1,3-thiazol-2-yl)carbamoyl]-1-methyl-1H-indole-3-sulfonamide], for which the IC50 turned out to be 0.385 µM.

As for `Cn1cc(S(=O)(=O)NC(=O)Nc2ncc(Br)s2)c2cc(OCc3ccccc3)ccc21` [Example 24, 5-(Benzyloxy)-N-[(5-bromo-1,3-thiazol-2-yl)carbamoyl]-1-methyl-1H-indole-3-sulfonamide], the IC50 amounted to 0.683 µM. On to `COC(=O)c1ccc2c(c1)c(S(=O)(=O)NC(=O)Nc1ncc(Br)s1)cn2C` [Example 25, Methyl 3-({[(5-bromo-1,3-thiazol-2-yl)carbamoyl]amino}sulfonyl)-1-methyl-1H-indole-5-carboxylate], for which the IC50 amounted to 0.731 µM. Then `Cn1cc(S(=O)(=O)NC(=O)Nc2ncc(Br)s2)c2cc(F)ccc21` [Example 26, N-[(5-Bromo-1,3-thiazol-2-yl)carbamoyl]-5-fluoro-1-methyl-1H-indole-3-sulfonamide], with 0.341 µM. Under `COC(=O)c1ccc2c(S(=O)(=O)NC(=O)Nc3ncc(Br)s3)cn(C)c2c1` [Example 27, Methyl 3-({[(5-bromo-1,3-thiazol-2-yl)carbamoyl]amino}sulfonyl)-1-methyl-1H-indole-6-carboxylate] stands 0.45 µM; under `Cn1cc(S(=O)(=O)NC(=O)Nc2ncc(Br)s2)c2ccc(OCc3ccccc3)cc21` [Example 28, 6-(Benzyloxy)-N-[(5-bromo-1,3-thiazol-2-yl)carbamoyl]-1-methyl-1H-indole-3-sulfonamide], 0.363 µM; under `Cn1cc(S(=O)(=O)NC(=O)Nc2ncc(Br)s2)c2ccc(C#N)cc21` [Example 29, N-[(5-Bromo-1,3-thiazol-2-yl)carbamoyl]-6-cyano-1-methyl-1H-indole-3-sulfonamide], 0.74 µM.
